Data from patent US10052320B2, “Substituted quinoxalines as FGFR kinase inhibitors” (ASTEX THERAPEUTICS LIMITED, priority 2011, dated 2018).
Read-outs that look alike come from different tables or passages of the source.

Legend:
[1] = biological target: Ba/F3-FGFR1-transfected cells (Homo sapiens, UniProt P11362); assay: Ba/F3-FGFR1 (minus IL3) cellular proliferation assay, Alamar Blue; assay type: cell-based; settings: for BAF3-FGFR 1 (MIN IL3) 384 well pIC50: minus IL3, 384 well
Description: Ba/F3-FGFR1 (Minus IL3 or Plus IL3) (Cellular Proliferation Assay)
Cells were put in an incubator at 37° C. and 5% CO2. After 24 hours, 10 μl of Alamar Blue solution (0.5 mM K3Fe(CN)6, 0.5 mM KaFe(CN)6, 0.15 mM Resazurin and 100 mM Phosphate Buffer) was added to the wells, incubated for 4 hours at 37° C. and 5% CO2 before RFU's (Relative Fluorescence Units) (ex. 540 nm., em. 590 nm.) were measured in a flurorescence plate reader. […]
(§1) In a 96 well plate, 180 μl cell culture medium (phenol red free RPMI-1640, 10% FBS, 2 mM L-Glutamine and 50 μg/ml Gentamycin) containing 10000 cells per well of Ba/F3-FGFR1-transfected cells were pipette and 20 μl of compound dilution in DMSO was added. Cells were put in an incubator at 37° C. and 5% CO2. After 24 hours, 40 μl of Alamar Blue solution (0.5 mM K3Fe(CN)6, 0.5 mM KaFe(CN)6, 0.15 mM Resazurin and 100 mM Phosphate Buffer) was added to the wells, incubated for 4 hours at 37° C. and 5% CO2 before RFU's (Relative Fluorescence Units) (ex. 540 nm., em. 590 nm.) were measured in a flurorescence plate reader.

[2] = biological target: Ba/F3-FGFR4-transfected cells (Homo sapiens, UniProt P22455); assay: Ba/F3-FGFR4 cellular proliferation assay, Alamar Blue; assay type: cell-based
Description: Ba/F3-FGFR4 (Cellular Proliferation Assay)
as §1, with “a 384” for “a 96”, “plate, 100 nl of compound dilution in DMSO was sprayed before adding 50” for “plate, 180”, “containing 20000” for “containing 10000”, “of Ba/F3-FGFR4-transfected cells.” for “of Ba/F3-FGFR1-transfected cells were pipette and 20 μl of compound dilution in DMSO was added.”, “hours, 10” for “hours, 40”

[3] = tested on: Ba/F3-FGFR1-transfected cells in the presence of 10 ng/ml murine IL3; assay: Ba/F3-FGFR1 (plus IL3) cellular proliferation counterscreen, Alamar Blue; assay type: cell-based; settings: for IC50: Mus musculus
In short: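 Compound dilutions in DMSO are combined with transfected cells in phenol red-free RPMI-1640 containing 10% FBS and L-glutamine. Plates incubate 24 h at 37 °C and 5% CO2. Viability is then scored by 4 h Alamar Blue conversion, read as fluorescence (540 nm excitation, 590 nm emission).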

FGFR1 (h) = FGFR1 (h) (Homo sapiens, UniProt P11362); assay: FGFR1 (enzymatic assay), TR-FRET; assay type: biochemical; settings: read-out: FGFR 1 pIC50 (converted)
Description: In a final reaction volume of 30 μL, FGFR1 (h) (25 ng/ml) was incubated with 50 mM HEPES pH 7.5, 6 mM MnCl2, 1 mM DTT, 0.1 mM Na3VO4, 0.01% Triton-X-100, 500 nM Btn-Flt3 and 5 μM ATP in the presence of compound (1% DMSO final). […] Time-Resolved Fluorescence Resonance Energy Transfer (TR-FRET) signal (ex340 nm. Em 620 nm, em 655 nm) was measured afterwards and results are expressed in RFU (Relative Fluorescence Units).

KDR (h) (VEGFR2) = KDR (h) (VEGFR2) (Homo sapiens, UniProt P35968); assay: KDR (VEGFR2) (enzymatic assay), TR-FRET; assay type: biochemical
In short: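 Phosphorylation of biotinylated Flt3 peptide (500 nM) by 150 ng/ml enzyme was measured at 3 μM ATP in Mn2+-containing HEPES buffer, pH 7.5, over 120 min at room temperature. Detection used Eu-anti-P-Tyr and SA-XL-665 TR-FRET.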

FGFR3 (h) = FGFR3 (h) (Homo sapiens, UniProt P22607); assay: FGFR3 (enzymatic assay), TR-FRET; assay type: biochemical; settings: read-out: FGFR 3 pIC50 (converted)
Description: In a final reaction volume of 30 μL, FGFR3 (h) (40 ng/ml) was incubated with 50 mM HEPES pH 7.5, 6 mM MnCl2, 1 mM DTT, 0.1 mM Na3VO4, 0.01% Triton-X-100, 500 nM Btn-Flt3 and 25 μM ATP in the presence of compound (1% DMSO final). […] Time-Resolved Fluorescence Resonance Energy Transfer (TR-FRET) signal (ex340 nm. Em 620 nm, em 655 nm) was measured afterwards and results are expressed in RFU (Relative Fluorescence Units).

[4] = plus IL3, 384 well, read-out: BAF3-FGFR 1 (PLUS IL3) 384 well pIC50 (converted)

FGFR1 (h), sequence (P11362 22-822): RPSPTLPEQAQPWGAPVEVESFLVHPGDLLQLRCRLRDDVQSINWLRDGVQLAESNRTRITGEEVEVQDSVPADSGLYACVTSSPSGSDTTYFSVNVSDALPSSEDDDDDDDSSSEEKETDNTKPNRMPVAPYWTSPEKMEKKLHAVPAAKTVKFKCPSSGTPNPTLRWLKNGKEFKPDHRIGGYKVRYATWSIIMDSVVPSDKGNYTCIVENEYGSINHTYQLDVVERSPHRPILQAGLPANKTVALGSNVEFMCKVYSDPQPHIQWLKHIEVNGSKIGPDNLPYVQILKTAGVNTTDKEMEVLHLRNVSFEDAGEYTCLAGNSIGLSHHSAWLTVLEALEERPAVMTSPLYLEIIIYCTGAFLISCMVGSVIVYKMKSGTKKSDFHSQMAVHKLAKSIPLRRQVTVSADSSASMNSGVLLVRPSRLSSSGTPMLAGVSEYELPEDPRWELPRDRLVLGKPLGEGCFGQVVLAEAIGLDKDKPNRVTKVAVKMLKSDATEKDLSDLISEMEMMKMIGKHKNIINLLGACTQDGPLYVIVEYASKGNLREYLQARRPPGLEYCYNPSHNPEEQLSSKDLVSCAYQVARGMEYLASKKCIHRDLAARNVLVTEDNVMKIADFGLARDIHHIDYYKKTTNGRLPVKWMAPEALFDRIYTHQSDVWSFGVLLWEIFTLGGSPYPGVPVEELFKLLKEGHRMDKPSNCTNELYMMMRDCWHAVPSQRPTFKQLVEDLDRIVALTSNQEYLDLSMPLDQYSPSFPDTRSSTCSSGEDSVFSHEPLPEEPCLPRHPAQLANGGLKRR
KDR (h) (VEGFR2), sequence (P35968 20-1356): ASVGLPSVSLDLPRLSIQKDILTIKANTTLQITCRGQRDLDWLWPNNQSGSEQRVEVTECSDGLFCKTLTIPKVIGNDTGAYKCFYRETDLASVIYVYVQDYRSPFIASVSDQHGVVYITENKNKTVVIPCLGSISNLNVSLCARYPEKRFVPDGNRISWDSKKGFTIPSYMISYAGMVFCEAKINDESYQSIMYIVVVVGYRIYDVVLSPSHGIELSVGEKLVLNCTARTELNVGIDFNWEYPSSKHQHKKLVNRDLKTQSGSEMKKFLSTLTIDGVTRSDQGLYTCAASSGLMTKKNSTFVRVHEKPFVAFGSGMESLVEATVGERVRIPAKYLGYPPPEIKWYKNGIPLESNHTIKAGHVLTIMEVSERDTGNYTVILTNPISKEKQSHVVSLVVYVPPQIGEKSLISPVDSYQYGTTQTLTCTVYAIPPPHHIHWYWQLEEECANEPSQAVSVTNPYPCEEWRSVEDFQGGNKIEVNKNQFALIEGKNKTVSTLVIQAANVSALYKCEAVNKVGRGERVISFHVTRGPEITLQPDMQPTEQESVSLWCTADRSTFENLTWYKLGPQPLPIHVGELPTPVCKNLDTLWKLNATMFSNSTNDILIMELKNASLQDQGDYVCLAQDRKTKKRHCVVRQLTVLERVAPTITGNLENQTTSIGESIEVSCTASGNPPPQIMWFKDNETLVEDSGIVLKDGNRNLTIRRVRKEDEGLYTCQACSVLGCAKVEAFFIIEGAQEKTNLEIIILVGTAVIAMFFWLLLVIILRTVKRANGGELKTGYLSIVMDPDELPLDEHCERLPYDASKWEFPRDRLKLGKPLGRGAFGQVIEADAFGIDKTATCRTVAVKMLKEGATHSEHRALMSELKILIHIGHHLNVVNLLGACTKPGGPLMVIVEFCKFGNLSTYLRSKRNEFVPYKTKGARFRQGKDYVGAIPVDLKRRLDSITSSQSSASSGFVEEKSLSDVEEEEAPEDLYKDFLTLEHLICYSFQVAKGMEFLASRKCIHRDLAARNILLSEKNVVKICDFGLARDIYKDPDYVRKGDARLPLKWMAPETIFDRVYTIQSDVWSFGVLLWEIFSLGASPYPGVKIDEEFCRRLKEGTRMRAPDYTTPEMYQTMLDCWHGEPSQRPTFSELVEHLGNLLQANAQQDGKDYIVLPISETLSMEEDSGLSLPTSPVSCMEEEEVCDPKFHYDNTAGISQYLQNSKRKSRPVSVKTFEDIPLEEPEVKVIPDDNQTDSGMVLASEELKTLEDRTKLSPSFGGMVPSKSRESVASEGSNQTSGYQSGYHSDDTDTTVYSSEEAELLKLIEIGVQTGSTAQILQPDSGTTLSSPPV
Ba/F3-FGFR4-transfected cells, sequence (P22455 whole entry, change not shown): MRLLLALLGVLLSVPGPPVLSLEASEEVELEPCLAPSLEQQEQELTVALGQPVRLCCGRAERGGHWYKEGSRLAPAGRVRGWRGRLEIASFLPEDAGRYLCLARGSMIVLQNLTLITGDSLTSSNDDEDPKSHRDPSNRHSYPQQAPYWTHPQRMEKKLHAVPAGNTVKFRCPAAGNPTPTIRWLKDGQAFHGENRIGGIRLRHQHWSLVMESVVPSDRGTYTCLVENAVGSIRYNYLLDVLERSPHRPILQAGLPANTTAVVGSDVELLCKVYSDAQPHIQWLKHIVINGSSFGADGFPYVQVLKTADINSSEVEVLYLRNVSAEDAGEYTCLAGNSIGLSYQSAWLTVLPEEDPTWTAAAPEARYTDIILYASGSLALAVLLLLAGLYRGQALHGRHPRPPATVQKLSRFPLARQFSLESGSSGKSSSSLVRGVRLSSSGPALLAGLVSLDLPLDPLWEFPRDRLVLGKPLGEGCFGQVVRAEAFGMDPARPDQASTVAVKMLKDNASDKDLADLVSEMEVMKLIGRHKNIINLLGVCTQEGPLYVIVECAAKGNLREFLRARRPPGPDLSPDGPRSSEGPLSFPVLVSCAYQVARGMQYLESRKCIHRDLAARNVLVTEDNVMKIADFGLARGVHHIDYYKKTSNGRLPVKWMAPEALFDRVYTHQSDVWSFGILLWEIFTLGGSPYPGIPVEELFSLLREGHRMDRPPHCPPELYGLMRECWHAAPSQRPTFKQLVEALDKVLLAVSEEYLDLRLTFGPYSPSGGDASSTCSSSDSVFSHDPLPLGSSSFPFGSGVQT
FGFR3 (h), sequence (P22607 23-806): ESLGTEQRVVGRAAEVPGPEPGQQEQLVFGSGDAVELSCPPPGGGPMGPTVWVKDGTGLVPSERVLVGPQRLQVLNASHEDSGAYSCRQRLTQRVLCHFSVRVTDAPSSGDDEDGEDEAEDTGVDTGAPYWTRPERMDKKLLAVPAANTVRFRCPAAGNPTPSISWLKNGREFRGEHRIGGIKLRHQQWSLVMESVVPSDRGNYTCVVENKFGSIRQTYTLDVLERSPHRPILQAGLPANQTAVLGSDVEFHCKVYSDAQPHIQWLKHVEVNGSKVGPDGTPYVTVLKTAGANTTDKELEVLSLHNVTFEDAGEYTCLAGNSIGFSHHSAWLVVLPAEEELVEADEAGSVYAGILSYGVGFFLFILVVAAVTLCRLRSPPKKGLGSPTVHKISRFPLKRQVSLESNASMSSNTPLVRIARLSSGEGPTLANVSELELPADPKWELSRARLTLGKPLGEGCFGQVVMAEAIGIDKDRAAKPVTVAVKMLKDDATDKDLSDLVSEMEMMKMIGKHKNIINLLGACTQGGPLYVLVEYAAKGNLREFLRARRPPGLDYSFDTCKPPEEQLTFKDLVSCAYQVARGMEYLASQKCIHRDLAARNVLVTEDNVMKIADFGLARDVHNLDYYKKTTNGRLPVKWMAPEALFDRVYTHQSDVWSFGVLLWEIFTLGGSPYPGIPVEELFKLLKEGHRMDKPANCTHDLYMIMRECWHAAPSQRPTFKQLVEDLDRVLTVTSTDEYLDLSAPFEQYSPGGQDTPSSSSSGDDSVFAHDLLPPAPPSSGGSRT
Ba/F3-FGFR1-transfected cells, sequence (P11362 whole entry, change not shown): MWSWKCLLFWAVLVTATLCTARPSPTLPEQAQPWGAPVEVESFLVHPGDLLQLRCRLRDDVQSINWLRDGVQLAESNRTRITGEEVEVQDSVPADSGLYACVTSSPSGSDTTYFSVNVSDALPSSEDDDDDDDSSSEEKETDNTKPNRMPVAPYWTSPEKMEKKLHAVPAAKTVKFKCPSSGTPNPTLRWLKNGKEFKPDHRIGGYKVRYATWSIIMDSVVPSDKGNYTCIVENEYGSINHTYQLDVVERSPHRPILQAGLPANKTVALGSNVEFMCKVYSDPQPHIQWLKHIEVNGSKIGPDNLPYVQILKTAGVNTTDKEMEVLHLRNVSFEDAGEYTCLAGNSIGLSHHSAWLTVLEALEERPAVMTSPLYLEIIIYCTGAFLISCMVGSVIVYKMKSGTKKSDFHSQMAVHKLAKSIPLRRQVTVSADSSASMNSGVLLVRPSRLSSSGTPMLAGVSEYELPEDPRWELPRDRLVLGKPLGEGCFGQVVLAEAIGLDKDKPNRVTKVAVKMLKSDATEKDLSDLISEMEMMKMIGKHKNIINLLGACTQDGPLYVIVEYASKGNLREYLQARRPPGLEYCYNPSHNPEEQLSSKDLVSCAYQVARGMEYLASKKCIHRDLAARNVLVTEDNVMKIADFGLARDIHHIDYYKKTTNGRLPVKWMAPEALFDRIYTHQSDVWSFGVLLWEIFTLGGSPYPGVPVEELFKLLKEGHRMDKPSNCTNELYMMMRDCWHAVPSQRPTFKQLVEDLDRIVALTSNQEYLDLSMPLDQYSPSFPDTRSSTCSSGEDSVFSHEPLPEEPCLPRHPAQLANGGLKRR

COc1cc(OC)cc(N(CCO)c2ccc3ncc(-n4cnc(CO)c4)nc3c2)c1 [Compound 38]
BAF3-FGFR 1 (MIN IL3) 384 well pIC50 [1]: 6.31
BAF3-FGFR4 pIC50 [2]: 5.8
IC50 [3, 4]: > 10000 nM
IC50 (FGFR1 (h)): 15.1 nM
IC50 (KDR (h) (VEGFR2)): 708 nM
IC50 (FGFR3 (h)): 10.5 nM

COc1cc(OC)cc(N(CC2CC2)c2ccc3ncc(C(=O)N4CCC4)nc3c2)c1 [Compound 93]
BAF3-FGFR 1 (MIN IL3) 96 well pIC50 ([1]; minus IL3, 96 well): <5
BAF3-FGFR 1 (MIN IL3) 384 well pIC50 [1]: <5
BAF3-FGFR4 pIC50 [2]: <5
IC50 ([3]; plus IL3, 96 well, read-out: BAF3-FGFR 1 (PLUS IL3) 96 well pIC50 (converted)): > 10000 nM
IC50 [3, 4]: > 10000 nM
IC50 (FGFR1 (h)): > 10000 nM
IC50 (KDR (h) (VEGFR2)): > 10000 nM
IC50 (FGFR3 (h)): 2340 nM

COc1cc(OC)cc(N(CCCNCC(=O)O)c2ccc3ncc(-c4ccnc(C(=O)NCCCCN)c4)nc3c2)c1 [Compound 44]
BAF3-FGFR 1 (MIN IL3) 384 well pIC50 [1]: <5
BAF3-FGFR4 pIC50 [2]: <5.35
IC50 [3, 4]: > 10000 nM
IC50 (FGFR1 (h)): 17.4 nM
IC50 (KDR (h) (VEGFR2)): 302 nM
IC50 (FGFR3 (h)): 11.2 nM

COc1cc(OC)cc(N(CCO)c2ccc3ncc(-c4ccnc(C(=O)NCCCCCO)c4)nc3c2)c1 [Compound 139]
BAF3-FGFR 1 (MIN IL3) 384 well pIC50 [1]: 5.35
BAF3-FGFR4 pIC50 [2]: <5
IC50 [3, 4]: > 10000 nM
IC50 (FGFR1 (h)): 31.6 nM
IC50 (KDR (h) (VEGFR2)): 692 nM
IC50 (FGFR3 (h)): 11.5 nM

COc1cc(OC)cc(N(CCO)c2ccc3ncc(C4=CCN(C(=O)OC(C)(C)C)CC4)nc3c2)c1 [Compound 178]
BAF3-FGFR 1 (MIN IL3) 384 well pIC50 [1]: 6.07
BAF3-FGFR4 pIC50 [2]: 5.9
IC50 [3, 4]: > 10000 nM
IC50 (FGFR1 (h)): 5.13 nM
IC50 (KDR (h) (VEGFR2)): > 1000 nM
IC50 (FGFR3 (h)): 2.88 nM

COc1cc(OC)cc(N(CC2CC2)c2ccc3ncc(N4CCN(CCO)CC4)nc3c2)c1 [Compound 49]
BAF3-FGFR 1 (MIN IL3) 384 well pIC50 [1]: <5
BAF3-FGFR4 pIC50 [2]: <5
IC50 [3, 4]: > 10000 nM
IC50 (FGFR1 (h)): 316 nM
IC50 (KDR (h) (VEGFR2)): 3980 nM
IC50 (FGFR3 (h)): 126 nM

COc1cc(OC)cc(N(CCN2CCOCC2)c2ccc3ncc(-c4ccc(N)nc4)nc3c2)c1 [Compound 169]
BAF3-FGFR 1 (MIN IL3) 384 well pIC50 [1]: 6.37
BAF3-FGFR4 pIC50 [2]: 6.0
IC50 [3, 4]: > 10000 nM
IC50 (FGFR1 (h)): 8.71 nM
IC50 (KDR (h) (VEGFR2)): 126 nM
IC50 (FGFR3 (h)): 6.46 nM

COc1cc(OC)cc(N(CCCO)c2ccc3ncc(-c4cccnc4F)nc3c2)c1 [Compound 149]
BAF3-FGFR 1 (MIN IL3) 384 well pIC50 [1]: 5.32
BAF3-FGFR4 pIC50 [2]: 5.6
IC50 [3, 4]: > 10000 nM
IC50 (FGFR1 (h)): 60.3 nM
IC50 (KDR (h) (VEGFR2)): > 1000 nM
IC50 (FGFR3 (h)): 35.5 nM

COc1cc(OC)cc(N(CCNC(C)C)c2ccc3ncc(N4CCC(CN)CC4)nc3c2)c1 [Compound 67]
BAF3-FGFR 1 (MIN IL3) 384 well pIC50 [1]: 6.23
BAF3-FGFR4 pIC50 [2]: 6.2
IC50 [3, 4]: 8510 nM
IC50 (FGFR1 (h)): 3.31 nM
IC50 (KDR (h) (VEGFR2)): 447 nM
IC50 (FGFR3 (h)): 16.6 nM

COc1cc(OC)cc(N(CCCNCCCO)c2ccc3ncc(-c4ccnc(C(=O)NCCCCN)c4)nc3c2)c1 [Compound 132]
BAF3-FGFR 1 (MIN IL3) 384 well pIC50 [1]: 5.8
BAF3-FGFR4 pIC50 [2]: 5.6
IC50 [3, 4]: > 10000 nM
IC50 (FGFR1 (h)): 4.37 nM
IC50 (KDR (h) (VEGFR2)): 309 nM
IC50 (FGFR3 (h)): 18.6 nM

COc1cc(OC)cc(N(CCNC(C)C)c2ccc3ncc(C(=O)NCCN4CCOCC4)nc3c2)c1 [Compound 160]
BAF3-FGFR 1 (MIN IL3) 384 well pIC50 [1]: 5.86
BAF3-FGFR4 pIC50 [2]: 5.8
IC50 [3, 4]: > 10000 nM
IC50 (FGFR1 (h)): 42.7 nM
IC50 (KDR (h) (VEGFR2)): > 1000 nM
IC50 (FGFR3 (h)): 91.2 nM

COc1cc(OC)cc(N(CCCNCC(F)(F)F)c2ccc3ncc(-c4ccnc(F)c4)nc3c2)c1 [Compound 144]
BAF3-FGFR 1 (MIN IL3) 384 well pIC50 [1]: <5
BAF3-FGFR4 pIC50 [2]: <5
IC50 [3, 4]: > 10000 nM
IC50 (FGFR1 (h)): 74.1 nM
IC50 (KDR (h) (VEGFR2)): > 1000 nM
IC50 (FGFR3 (h)): 56.2 nM

COc1cc(OC)cc(N(CCNC(C)C)c2ccc3ncc(-c4ccc(N5CCN(C)CC5)nc4)nc3c2)c1 [Compound 170]
BAF3-FGFR 1 (MIN IL3) 384 well pIC50 [1]: 6.04
BAF3-FGFR4 pIC50 [2]: 6.2
IC50 [3, 4]: 3550 nM
IC50 (FGFR1 (h)): 0.813 nM
IC50 (KDR (h) (VEGFR2)): 135 nM
IC50 (FGFR3 (h)): 6.17 nM

COc1cc(OC)cc(N(CCCNC(C)C)c2ccc3ncc(-c4ccnc(N)c4)nc3c2)c1 [Compound 143]
BAF3-FGFR 1 (MIN IL3) 384 well pIC50 [1]: 6.56
BAF3-FGFR4 pIC50 [2]: 6.9
IC50 [3, 4]: 5620 nM
IC50 (FGFR1 (h)): 1.05 nM
IC50 (KDR (h) (VEGFR2)): 52.5 nM
IC50 (FGFR3 (h)): 2.51 nM

COCC(CN(c1cc(OC)cc(OC)c1)c1ccc2ncc(-c3cccnc3)nc2c1)OC(C)=O (single isomer, unassigned) [Compound 76]
BAF3-FGFR 1 (MIN IL3) 384 well pIC50 [1]: 6.3
BAF3-FGFR4 pIC50 [2]: 5.6
BAF3-FGFR 1 (PLUS IL3) 384 well pIC50 ([3]; plus IL3, 384 well): <5
IC50 (FGFR1 (h)): 11.7 nM
IC50 (KDR (h) (VEGFR2)): 389 nM
IC50 (FGFR3 (h)): 5.75 nM

COc1cc(OC)cc(N(CCCO)c2ccc3ncc(-c4ccnc(F)c4)nc3c2)c1 [Compound 142]
BAF3-FGFR 1 (MIN IL3) 384 well pIC50 [1]: 5.64
BAF3-FGFR4 pIC50 [2]: 5.6
IC50 [3, 4]: > 10000 nM
IC50 (FGFR1 (h)): 12.6 nM
IC50 (KDR (h) (VEGFR2)): 347 nM
IC50 (FGFR3 (h)): 7.41 nM

COc1cc(OC)cc(N(CCNC(C)C)c2ccc3ncc(C(=O)N4CCN(C)CC4)nc3c2)c1 [Compound 179]
BAF3-FGFR 1 (MIN IL3) 384 well pIC50 [1]: 5.62
BAF3-FGFR4 pIC50 [2]: <5
IC50 [3, 4]: > 10000 nM
IC50 (FGFR1 (h)): 204 nM
IC50 (KDR (h) (VEGFR2)): 77.6 nM
IC50 (FGFR3 (h)): 380 nM

COc1cc(OC)cc(N(CCNC(C)C)c2ccc3ncc(C(=O)N4CCOCC4)nc3c2)c1 [Compound 181]
BAF3-FGFR 1 (MIN IL3) 384 well pIC50 [1]: 5.44
BAF3-FGFR4 pIC50 [2]: <5
IC50 [3, 4]: > 10000 nM
IC50 (FGFR1 (h)): 295 nM
IC50 (KDR (h) (VEGFR2)): > 1000 nM
IC50 (FGFR3 (h)): 501 nM
